Results reported in PMC12147034, “Identification of alkynyl nicotinamide HSN748 as a RET solvent-front mutant inhibitor with intracranial efficacy” (RSC Medicinal Chemistry, 2025).
Where a chain is given by its changes, count along the chain named. “And” between values parts separate entries of the source, which are not always exact repeats. Equal values may be shown once.

Key:
Format in all cases: cell-based
[1] = molecular target: T1, B/KR(G810R) cells, KIF5B-RET G810R (Homo sapiens, UniProt P07949+P33176, G810R); assay: Cell viability assay (CellTiter-Glo, 3 days) in B/KR(G810R) cells
T1 construct: FLAG; expressed in transfected cells; host or cells: BaF3
T1 sequence (P07949 713-1063 G810R limits assumed): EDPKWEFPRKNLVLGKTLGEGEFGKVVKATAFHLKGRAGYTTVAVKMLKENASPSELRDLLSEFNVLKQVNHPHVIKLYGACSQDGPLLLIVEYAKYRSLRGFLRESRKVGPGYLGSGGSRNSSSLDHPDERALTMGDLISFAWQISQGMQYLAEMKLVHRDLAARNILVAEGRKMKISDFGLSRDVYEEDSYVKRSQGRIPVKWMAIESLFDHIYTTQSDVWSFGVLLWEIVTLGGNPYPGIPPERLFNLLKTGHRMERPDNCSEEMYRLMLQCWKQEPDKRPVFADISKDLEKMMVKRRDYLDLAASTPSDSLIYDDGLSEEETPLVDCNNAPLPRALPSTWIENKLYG
Description: (§1) BaF3 cell lines expressing a flag-tagged KIF5B-RET (B/KR) and the KIF5B-RET containing G810C, G810R, G810S, V804M, V804L mutations were as reported.[8,13,17,21–23] […] Infected cells were cultured for two weeks, and cells with high GFP intensity were sorted into a 96-well plate (1 cell/well). After the expansion of growing cell lines, they were screened for a high level of luciferase activity by luminescence imaging after exposure to D-luciferin. IMR-90 cells were from ATCC.
(§2) The TEL-VEGFR2 cDNA was then subcloned into pLentP lentiviral vector.[21] and BaF3/TEL-VEGFR2 (B/TV) cells were generated by infecting BaF3 cells with the lentiviral TEL-VEGFR2 as described. Cell viability assay was performed using CellTiter-Glo reagent (G7573, Promega, Madison, WI, USA) after 3 days of drug treatment as described for BaF3-derived cells and 5 days for IMR-90 cells.

[2] = molecular target: T2, B/KR(G810S) cells, KIF5B-RET G810S (Homo sapiens, UniProt P07949+P33176, G810S); assay: Cell viability assay (CellTiter-Glo, 3 days) in B/KR(G810S) cells
T2 construct: FLAG; expressed in transfected cells; host or cells: BaF3
T2 sequence (P07949 713-1063 G810S limits assumed): T1 sequence (P07949 713-1063 G810R limits assumed) with R98S
Description: as §1, §2

[3] = molecular target: T3, B/KR(G810C) cells, KIF5B-RET G810C (Homo sapiens, UniProt P07949+P33176, G810C); assay: Cell viability assay (CellTiter-Glo, 3 days) in B/KR(G810C) cells
T3 construct: FLAG; expressed in transfected cells; host or cells: BaF3
T3 sequence (P07949 713-1063 G810C limits assumed): T1 sequence (P07949 713-1063 G810R limits assumed) with R98C
Description: as §1, §2

B/KR(G810C/R/S) cells = assay: Cell viability assay, RET solvent-front mutants stated jointly; details: read-out: IC50s for B/KR(G810C/R/S) cells; stated jointly for G810C, G810R and G810S
Description: as §1, §2

[4] = molecular target: T4, B/KR(V804L) cells, KIF5B-RET V804L (Homo sapiens, UniProt P07949+P33176, V804L); assay: Cell viability assay (CellTiter-Glo, 3 days) in B/KR(V804L) cells
T4 construct: FLAG; expressed in transfected cells; host or cells: BaF3
T4 sequence (P07949 713-1063 V804L limits assumed): T1 sequence (P07949 713-1063 G810R limits assumed) with V92L, R98G
Description: as §1, §2

Cc1n[nH]c2ncc(C#Cc3cncc(C(=O)Nc4ccc(CN5CCN(C)CC5)c(C(F)(F)F)c4)c3)cc12 [HSND19, 5-((3-Methyl-1H-pyrazolo[3,4-b]pyridin-5-yl)ethynyl)-N-(4-((4-methylpiperazin-1-yl)methyl)-3-(trifluoromethyl)phenyl)nicotinamide]
IC50 [1]: 23.1 ± 1.39 nM
IC50 [2]: 4 ± 0.16 nM
IC50 [3]: 9.08 ± 1.63 nM
IC50 (B/KR(G810C/R/S) cells): < 33 nM
IC50 [4]: 20.6 ± 2.22 nM

CCOc1ccc2ncc(C#Cc3cncc(C(=O)Nc4ccc(CN5CCN(C)CC5)c(C(F)(F)F)c4)c3)n2n1 [HSND14, 5-((6-Ethoxyimidazo[1,2-b]pyridazin-3-yl)ethynyl)-N-(4-((4-methylpiperazin-1-yl)methyl)-3-(trifluoromethyl)phenyl)nicotinamide]
IC50 [1]: 33 ± 0.67 nM
IC50 [2]: 5.21 ± 0.15 nM
IC50 [3]: 15.9 ± 0.72 nM
IC50 (B/KR(G810C/R/S) cells): < 33 nM
IC50 [4]: 30 ± 1.2 nM

CN1CCN(Cc2ccc(NC(=O)c3cncc(C#Cc4cnc5cccnn45)c3)cc2C(F)(F)F)CC1 [HSN748]
IC50 [1]: 20.6 ± 1.42 nM
IC50 [2]: 13.9 ± 0.32 nM
IC50 [3]: 7.93 ± 0.33 nM
IC50 (B/KR(G810C/R/S) cells): < 33 nM
IC50 [4]: 55 nM and 55.7 nM
